Test [1] has as its target T1, IKKε (Homo sapiens, UniProt Q14164).
T1 construct: TBK1 and IKKε were expressed and purified as full length recombinant proteins; made in house
T1 sequence (Q14164 1-716): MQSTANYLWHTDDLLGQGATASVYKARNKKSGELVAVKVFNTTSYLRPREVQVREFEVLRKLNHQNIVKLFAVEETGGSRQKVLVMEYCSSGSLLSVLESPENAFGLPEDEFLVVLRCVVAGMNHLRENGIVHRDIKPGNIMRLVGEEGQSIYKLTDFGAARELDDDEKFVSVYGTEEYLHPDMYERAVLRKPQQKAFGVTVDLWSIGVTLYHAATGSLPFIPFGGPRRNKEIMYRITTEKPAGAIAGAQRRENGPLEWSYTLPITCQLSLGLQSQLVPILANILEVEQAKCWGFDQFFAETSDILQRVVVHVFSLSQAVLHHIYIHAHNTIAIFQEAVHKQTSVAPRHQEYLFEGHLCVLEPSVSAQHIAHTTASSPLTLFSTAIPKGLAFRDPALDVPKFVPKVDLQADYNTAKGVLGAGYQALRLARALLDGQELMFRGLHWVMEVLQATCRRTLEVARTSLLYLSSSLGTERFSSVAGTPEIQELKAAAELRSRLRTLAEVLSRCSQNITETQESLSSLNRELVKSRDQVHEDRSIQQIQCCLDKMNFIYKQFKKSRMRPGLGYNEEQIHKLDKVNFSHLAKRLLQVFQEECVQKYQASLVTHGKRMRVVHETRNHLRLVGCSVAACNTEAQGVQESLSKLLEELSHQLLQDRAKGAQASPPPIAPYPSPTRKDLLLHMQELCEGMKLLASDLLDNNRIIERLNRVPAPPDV
The experiment in a line: TR-FRET enzymatic activity assay, IKKε. Further: full length recombinant IKKε at 0.3 nM. The format is biochemical. The settings on record: read-out: IKKϵ IC50. The essentials:
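IC50 values are geometric means of at least four determinations, fitted to a four-parameter curve after normalising to 1 μM staurosporine and DMSO. Signal: Eu-cryptate anti-phospho antibody plus 125 nM streptavidin-XL665 on a biotinylated peptide. Full-length recombinant enzyme reacted 240 min, 25 °C, then EDTA-quenched.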
A general note: TR-FRET usually uses a lanthanide donor and a delayed reading to cut background.

The target of test [2] is T2, TBK1 (Homo sapiens, UniProt Q9UHD2).
T2 construct: TBK1 and IKKε were expressed and purified as full length recombinant proteins; made in house
T2 sequence (Q9UHD2 1-729): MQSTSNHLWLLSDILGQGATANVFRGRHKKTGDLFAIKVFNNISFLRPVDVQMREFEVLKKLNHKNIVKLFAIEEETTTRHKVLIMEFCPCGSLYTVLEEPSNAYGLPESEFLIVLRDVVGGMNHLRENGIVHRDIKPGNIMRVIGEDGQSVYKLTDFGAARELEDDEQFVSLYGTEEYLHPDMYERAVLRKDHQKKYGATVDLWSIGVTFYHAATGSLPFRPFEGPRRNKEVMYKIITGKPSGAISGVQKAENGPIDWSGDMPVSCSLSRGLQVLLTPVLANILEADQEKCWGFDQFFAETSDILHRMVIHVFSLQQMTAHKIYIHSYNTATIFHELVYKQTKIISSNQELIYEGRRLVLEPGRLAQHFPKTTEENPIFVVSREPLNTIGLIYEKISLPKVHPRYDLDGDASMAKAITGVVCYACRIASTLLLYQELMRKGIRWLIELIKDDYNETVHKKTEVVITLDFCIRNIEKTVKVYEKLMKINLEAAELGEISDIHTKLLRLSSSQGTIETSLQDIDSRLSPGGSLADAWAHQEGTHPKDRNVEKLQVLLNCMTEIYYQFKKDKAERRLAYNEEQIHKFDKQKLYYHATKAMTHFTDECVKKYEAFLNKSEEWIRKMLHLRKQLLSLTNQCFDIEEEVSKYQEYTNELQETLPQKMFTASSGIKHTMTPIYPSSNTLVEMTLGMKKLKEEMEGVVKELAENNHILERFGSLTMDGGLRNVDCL
In words: TR-FRET enzymatic activity assay, TBK1. Further: full length recombinant TBK1 at 2.5 nM. Format: biochemical. The essentials: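 TR-FRET detected phosphorylation of a biotinylated serine/threonine peptide using 125 nM streptavidin XL665 plus europium-labelled anti-phospho antibody. Reactions with full-length recombinant kinase ran 240 min at 25 °C before EDTA quench. Values are geometric-mean IC50s (n ≥ 4) from four-parameter dose-response fits against staurosporine and DMSO controls.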

The results in this text go back to patent US10316049B2, “Tank-binding kinase inhibitor compounds” (Gilead Sciences, Inc., priority 2015, dated 2019).

One may read the IC50 as the concentration that gives 50% inhibition.

Turning to `N#Cc1cc(-c2ccnc(NC(=O)[C@H]3C[C@H]3F)c2)ccc1N1CCCC1` [Example 64, (1R,2R)—N-(4-(3-cyano-4-(pyrrolidin-1-yl)phenyl)pyridin-2-yl)-2-fluorocyclopropane-1-carboxamide], the results for the IC50 in test [1] and in test [2] were 578 nM and 85.3 nM, respectively.

As to `N#Cc1cc(-c2ccnc(NC(=O)C3CC3c3nc[nH]n3)c2)ccc1O[C@H]1CCN(C(=O)CO)C[C@H]1F` (stereo partly drawn) [Example 76, N-(4-(3-Cyano-4-(((3R,4S)-3-fluoro-1-(2-hydroxyacetyl)piperidin-4-yl)oxy)phenyl)pyridin-2-yl)-2-(1H-1,2,4-triazol-3-yl)cyclopropane-1-carboxamide], the IC50 was 357 nM in test [1] and 256 nM in test [2].

For `CCC[C@H]1C[C@@H]1C(=O)Nc1cc(-c2ccc(OC3CCOCC3)c(C#N)c2)ccn1` (relative stereo) [Example 91, (1,2-trans)-N-(4-(3-cyano-4-((tetrahydro-2H-pyran-4-yl)oxy)phenyl)pyridin-2-yl)-2-propylcyclopropane-1-carboxamide], the IC50 in test [1] amounted to 266 nM; in test [2], 44.1 nM.

`N#Cc1cc(-c2ccnc(NC(=O)[C@@H]3C[C@H]3c3cccnc3)c2)ccc1O[C@H]1CCN(C(=O)CO)CC1(F)F` [Example 141, (1R,2R)—N-(4-(3-cyano-4-(((S)-3,3-difluoro-1-(2-hydroxyacetyl)piperidin-4-yl)oxy)phenyl)pyridin-2-yl)-2-(pyridin-3-yl)cyclopropane-1-carboxamide]: the results for the IC50 in test [1] and in test [2] were 11.2 nM and 17.3 nM, respectively.

With `N#Cc1cc(-c2cc(NC(=O)C3CC3)ncc2F)ccc1OC1CCOCC1` [Example 4, N-(4-(3-cyano-4-((tetrahydro-2H-pyran-4-yl)oxy)phenyl)-5-fluoropyridin-2-yl)cyclopropanecarboxamide], the values for the half-maximal inhibitory concentration (IC50) in test [1] and in test [2] were 327 nM and 43.6 nM, respectively.

As to `N#Cc1cc(-c2ccnc(NC(=O)[C@@H]3C[C@@H]3c3ccccc3)c2)ccc1O[C@H]1CCN(C(=O)CO)C[C@H]1F` (stereo in doubt) [Example 71, (1,2-cis)-N-(4-(3-Cyano-4-(((3R,4S)-3-fluoro-1-(2-hydroxyacetyl)piperidin-4-yl)oxy)phenyl)pyridin-2-yl)-2-phenylcyclopropane-1-carboxamide], the half-maximal inhibitory concentration (IC50) in test [1] was found to be 117 nM; in test [2], 51.4 nM.

With `Cn1cc([C@@H]2C[C@H]2C(=O)Nc2cc(-c3ccc(O[C@H]4CCN(C(=O)[C@@H](O)CO)CC4(F)F)c(C#N)c3)ncn2)cn1` [Example 132, (1,2-Trans)-N-(6-(3-cyano-4-(((S)-1-((S)-2,3-dihydroxypropanoyl)-3,3-difluoropiperidin-4-yl)oxy)phenyl)pyrimidin-4-yl)-2-(1-methyl-1H-pyrazol-4-yl)cyclopropane-1-carboxamide], the IC50 in test [1] was 12.3 nM; in test [2], 4.7 nM.

As for `Cn1cc([C@H]2C[C@@H]2C(=O)Nc2cc(-c3ccc(O[C@H]4CCN(C(=O)CO)CC4(F)F)c(C#N)c3)ccn2)cn1` [Example 122, (1S, 2S)—N-(4-(3-cyano-4-(((S)-3,3-difluoro-1-(2-hydroxyacetyl)piperidin-4-yl)oxy)phenyl)pyridin-2-yl)-2-(1-methyl-1H-pyrazol-4-yl)cyclopropane-1-carboxamide], the IC50 worked out at 4.9 nM in test [1] and 6 nM in test [2].

For the compound `N#Cc1cc(-c2ccnc(NC(=O)C3CC3c3ccco3)c2)ccc1OC1CCOCC1` (stereo not drawn) [Example 51, N-(4-(3-cyano-4-((tetrahydro-2H-pyran-4-yl)oxy)phenyl)pyridin-2-yl)-2-(furan-2-yl)cyclopropane-1-carboxamide], the concentration for half-maximal inhibition (IC50) in test [1] was determined as 426 nM; in test [2], 57.8 nM.

In the case of `N#Cc1cc(-c2ccnc(NC(=O)C3CC3)c2)ccc1N1CCC[C@@H]1C(N)=O` [Example 95, (R)-1-(2-cyano-4-(2-(cyclopropanecarboxamido)pyridin-4-yl)phenyl)pyrrolidine-2-carboxamide], the IC50 in test [1] was over 1000 nM; in test [2] it was 258 nM.

With `N#Cc1cc(-c2ccnc(NC(=O)[C@@H]3C[C@@H]3CO)c2)ccc1O[C@H]1CCN(C(=O)CO)C[C@H]1F` [Example 74, (1,2-cis)-N-(4-(3-Cyano-4-(((3R,4S)-3-fluoro-1-(2-hydroxyacetyl)piperidin-4-yl)oxy)phenyl)pyridin-2-yl)-2-(hydroxymethyl)cyclopropane-1-carboxamide], the IC50 came to 145 nM in test [1] and 99.3 nM in test [2].

With `N#Cc1cc(-c2ccnc(NC(=O)C3CC3)c2)ncc1O[C@H]1CCN(C(=O)CO)C[C@H]1F` [Example 24, N-(4-cyano-5-(((3R,4S)-3-fluoro-1-(2-hydroxyacetyl)piperidin-4-yl)oxy)-[2,4′-bipyridin]-2′-yl)cyclopropanecarboxamide], the IC50 in test [1] is 192 nM; in test [2], 86.1 nM.

Regarding `CC1CC1C(=O)Nc1cc(-c2ccc(O[C@H]3CCN(C(=O)CO)C[C@H]3F)c(C#N)c2)ccn1` (stereo partly drawn) [Example 70, N-(4-(3-Cyano-4-(((3R,4S)-3-fluoro-1-(2-hydroxyacetyl)piperidin-4-yl)oxy)phenyl)pyridin-2-yl)-2-methylcyclopropanecarboxamide], the IC50 in test [1] came to 26.1 nM; in test [2], 8.9 nM.

`N#Cc1cc(-c2ccnc(NC(=O)C3(CF)CC3)c2)ccc1OC1CCOCC1` [Example 49, N-(4-(3-cyano-4-((tetrahydro-2H-pyran-4-yl)oxy)phenyl)pyridin-2-yl)-1-(fluoromethyl)cyclopropane-1-carboxamide]: the IC50 in test [1] and in test [2] was over 1000 nM in each case.

Regarding `C[C@H](O)C(=O)N1CC[C@H](Oc2ccc(-c3ccnc(NC(=O)C4CC4)c3)cc2C#N)[C@H](F)C1` [Example 9, N-(4-(3-cyano-4-(((3R,4S)-3-fluoro-1-((S)-2-hydroxypropanoyl)piperidin-4-yl)oxy)phenyl)pyridin-2-yl)cyclopropanecarboxamide], the IC50 stood at 46.4 nM in test [1] and 15.2 nM in test [2].

In the case of `CCOC(=O)[C@@H]1C[C@H]1C(=O)Nc1cc(-c2ccc(OC3CCOCC3)c(C#N)c2)ncn1` (relative stereo) [Example 35, (trans)-ethyl 2-((6-(3-cyano-4-((tetrahydro-2H-pyran-4-yl)oxy)phenyl)pyrimidin-4-yl)carbamoyl)cyclopropanecarboxylate], the concentration for half-maximal inhibition (IC50) in test [1] is over 1000 nM; in test [2], 485 nM.

For the compound `N#Cc1cc(-c2ccnc(NC(=O)C3CC34CCOC4)c2)ccc1OC1CCOCC1` (stereo not drawn) [Example 117, N-(4-(3-Cyano-4-((tetrahydro-2H-pyran-4-yl)oxy)phenyl)pyridin-2-yl)-5-oxaspiro[2.4]heptane-1-carboxamide], the IC50 in test [1] is over 1000 nM; in test [2] it was 851 nM.

Take `N#Cc1cc(-c2cc(NC(=O)C3CC3)ncn2)ccc1C(=O)NCC(F)(F)F` [Example 54, 2-cyano-4-(6-(cyclopropanecarboxamido)pyrimidin-4-yl)-N-(2,2,2-trifluoroethyl)benzamide]: the concentration for half-maximal inhibition (IC50) in test [1] is over 1000 nM; in test [2], 883 nM.
